# Test results published in patent US8962674B2 (Tokyo Institute of Technology, priority 2006, dated 2015).
row,melting point [°C],SMILES
1,180 to 184,"COc1cccc(OC)c1/C=C/C(=O)CC(=O)/C=C/c1c(OC)cccc1OC [CU390, (1E,6E)-1,7-bis(2,6-dimethoxyphenyl)hepta-1,6-diene-3,5-dione]"
2,247 to 255,"O=C(/C=C/c1ccc2cc[nH]c2c1)CC(=O)/C=C/c1ccc2cc[nH]c2c1 [CU391, (1E,6E)-1,7-bis(1H-indol-6-yl)hepta-1,6-diene-3,5-dione]"
3,211 to 215,"O=C(/C=C/c1cccc2cc[nH]c12)CC(=O)/C=C/c1cccc2cc[nH]c12 [CU392, (1E,6E)-1,7-bis(1H-indol-7-yl)hepta-1,6-diene-3,5-dione]"
4,264 to 268,"O=C(/C=C/c1cc2ccccc2[nH]1)CC(=O)/C=C/c1cc2ccccc2[nH]1 [CU393, (1E,6E)-1,7-bis(1H-indol-2-yl)hepta-1,6-diene-3,5-dione]"
5,206 to 213,"O=C(/C=C/c1cn(Cc2ccccc2)c2ccccc12)CC(=O)/C=C/c1cn(Cc2ccccc2)c2ccccc12 [CU397, (1E,6E)-1,7-bis(1-benzyl-1H-indol-3-yl)hepta-1,6-diene-3,5-dione]"
6,164 to 170,"O=C(/C=C/c1ccc(O)cc1)CC(=O)/C=C/c1ccc2ccn(Cc3ccccc3)c2c1 [CU400, (1E,6E)-1-(1-benzyl-1H-indol-6-yl)-7-(4-hydroxyphenyl)hepta-1,6-diene-3,5-dione]"
7,196 to 200,"CS(=O)(=O)n1cc(/C=C/C(=O)CC(=O)/C=C/c2ccc(O)cc2)c2ccccc21 [CU401, (1E,6E)-1-(4-hydroxyphenyl)-7-[1-(methylsulfonyl)-1H-indol-3-yl]hepta-1,6-diene-3,5-dione]"
8,218 to 222,"Cc1ccc(S(=O)(=O)n2cc(/C=C/C(=O)CC(=O)/C=C/c3ccc(O)cc3)c3ccccc32)cc1 [CU403, (1E,6E)-1-(4-hydroxyphenyl)-7-(1-tosyl-1H-indol-3-yl)hepta-1,6-diene-3,5-dione]"
9,107 to 112,"Cc1ccc(S(=O)(=O)n2ccc3ccc(/C=C/C(=O)CC(=O)/C=C/c4ccc(O)cc4)cc32)cc1 [CU404, (1E,6E)-1-(4-hydroxyphenyl)-7-(1-tosyl-1H-indol-6-yl)hepta-1,6-diene-3,5-dione]"
10,227 to 231,"O=C(/C=C/c1ccc(O)cc1)CC(=O)/C=C/c1coc2ccccc2c1=O [CU407, (1E,6E)-1-(chromon-3-yl)-7-(4-hydroxyphenyl)hepta-1,6-diene-3,5-dione]"
11,212 to 217,"Nc1ccc(/C=C/C(=O)CC(=O)/C=C/c2ccc(O)cc2)cc1 [CU408, (1E,6E)-1-(4-aminophenyl)-7-(4-hydroxyphenyl)hepta-1,6-diene-3,5-dione]"
12,189 to 196,"Cn1c(/C=C/C(=O)CC(=O)/C=C/c2cc3ccccc3n2C)cc2ccccc21 [CU409, (1E,6E)-1,7-bis(1-methyl-1H-indol-2-yl)hepta-1,6-diene-3,5-dione]"
13,76 to 86,"COc1cc(N(C)C)ccc1/C=C/C(=O)CC(=O)/C=C/c1ccc(N(C)C)cc1OC [CU410, (1E,6E)-1,7-bis(4-dimethylamino-2-methoxyphenyl)hepta-1,6-diene-3,5-dione]"
14,238 to 241,"CN(C)c1ccc(/C=C/C(=O)CC(=O)/C=C/c2ccc(N(C)C)cc2Cl)c(Cl)c1 [CU412, (1E,6E)-1,7-bis(2-chloro-4-dimethylaminophenyl)hepta-1,6-diene-3,5-dione]"
15,202 to 208,"O=C(/C=C/c1cccc2cccnc12)CC(=O)/C=C/c1cccc2cccnc12 [CU414, (1E,6E)-1,7-bis(quinolin-8-yl)hepta-1,6-diene-3,5-dione]"
16,250 to 254,"COc1cc(=O)oc2ccc(/C=C/C(=O)CC(=O)/C=C/c3ccc(O)cc3)cc12 [CU415, (1E,6E)-1-(4-hydroxyphenyl)-7-(4-methoxycoumarin-6-yl)hepta-1,6-diene-3,5-dione]"
17,158 to 161,"COc1cc(/C=C/C(=O)CC(=O)/C=C/c2cn(Cc3ccccc3)c3ccccc23)ccc1O [CU416, (1E,6E)-1-(1-benzyl-1H-indol-3-yl)-7-(4-hydroxy-3-methoxyphenyl)hepta-1,6-diene-3,5-dione]"

row,melting point [°C],SMILES
1,194 to 199,"COc1ccc(/C=C/C(=O)CC(=O)/C=C/c2cn(Cc3ccccc3)c3ccccc23)cc1O [CU417, (1E,6E)-1-(1-benzyl-1H-indol-3-yl)-7-(3-hydroxy-4-methoxyphenyl)hepta-1,6-diene-3,5-dione]"
2,161 to 167,"N[C@H](Cc1ccccc1)C(=O)Nc1ccc(/C=C/C(=O)CC(=O)/C=C/c2ccc(O)cc2)cc1 [CU423, (1E,6E)-1-[4-((R)-2-amino-3-phenylpropionylamino)phenyl]-7-(4-hydroxyphenyl)hepta-1,6-diene-3,5-dione]"
3,173 to 180,"O=C(/C=C/c1ccc(O)cc1)CC(=O)/C=C/c1ccccc1CO [CU424, (1E,6E)-1-(2-hydroxymethylphenyl)-7-(4-hydroxyphenyl)hepta-1,6-diene-3,5-dione]"
4,212 to 215,"CCN(CC)c1ccc(/C=C/C(=O)CC(=O)/C=C/c2ccc(O)cc2)c(OC(=O)c2ccccc2)c1 [CU425, (1E,6E)-1-(2-benzoyloxy-4-diethylaminophenyl)-7-(4-hydroxyphenyl)hepta-1,6-diene-3,5-dione]"
5,69 to 76,"CCN(CC)c1ccc(/C=C/C(=O)CC(=O)/C=C/c2ccc(O)cc2)c(OCC=C(C)C)c1 [CU426, (1E,6E)-1-(4-diethylamino-2-prenyloxyphenyl)-7-(4-hydroxyphenyl)hepta-1,6-diene-3,5-dione]"
6,192 to 196,"CCN(CC)c1ccc(/C=C/C(=O)CC(=O)/C=C/c2ccc(N(CC)CC)cc2OC(=O)c2ccccc2)c(OC(=O)c2ccccc2)c1 [CU427, (1E,6E)-1,7-bis(2-benzoyloxy-4-diethylaminophenyl)hepta-1,6-diene-3,5-dione]"
7,182 to 186,"CCN(CC)c1ccc(/C=C/C(=O)CC(=O)/C=C/c2ccc(O)cc2)c(OCCO)c1 [CU430, (1E,6E)-1-[4-diethylamino-2-(2-hydroxyethoxy)phenyl]-7-(4-hydroxyphenyl)hepta-1,6-diene-3,5-dione]"
8,107 to 113,"CCN(CC)c1ccc(/C=C/C(=O)CC(=O)/C=C/c2ccc(N(CC)CC)cc2OCC=C(C)C)c(OCC=C(C)C)c1 [CU431, (1E,6E)-1,7-bis(4-diethylamino-2-prenyloxyphenyl)hepta-1,6-diene-3,5-dione]"
9,63 to 66,"CCN(CC)c1ccc(/C=C/C(=O)CC(=O)/C=C/c2ccc(N(CC)CC)cc2OC(C)C)c(OC(C)C)c1 [CU433, (1E,6E)-1,7-bis(4-diethylamino-2-isopropyloxyphenyl)hepta-1,6-diene-3,5-dione]"
10,60 to 65,"CCN(CC)c1ccc(/C=C/C(=O)CC(=O)/C=C/c2ccc(O)c(OC)c2)c(OCc2ccccc2)c1 [CU437, (1E,6E)-1-(2-benzyloxy-4-diethylaminophenyl)-7-(4-hydroxy-3-methoxyphenyl)hepta-1,6-diene-3,5-dione]"
11,72 to 77,"CCN(CC)c1ccc(/C=C/C(=O)CC(=O)/C=C/c2ccc(OC)c(O)c2)c(OCc2ccccc2)c1 [CU438, (1E,6E)-1-(2-benzyloxy-4-diethylaminophenyl)-7-(3-hydroxy-4-methoxyphenyl)hepta-1,6-diene-3,5-dione]"
12,156 to 160,"CCN(CC)c1ccc(/C=C/C(=O)CC(=O)/C=C/c2ccc(O)c(OC)c2)c(OC(C)C)c1 [CU439, (1E,6E)-1-(4-diethylamino-2-isopropyloxyphenyl)-7-(4-hydroxy-3-methoxyphenyl)hepta-1,6-diene-3,5-dione]"
13,117 to 120,"CCN(CC)c1ccc(/C=C/C(=O)CC(=O)/C=C/c2ccc(OC)c(O)c2)c(OC(C)C)c1 [CU440, (1E,6E)-1-(4-diethylamino-2-isopropyloxyphenyl)-7-(3-hydroxy-4-methoxyphenyl)hepta-1,6-diene-3,5-dione]"
14,139 to 143,"CCN(CC)c1ccc(/C=C/C(=O)CC(=O)/C=C/c2ccc(OC)c(O)c2)c(OCC=C(C)C)c1 [CU442, (1E,6E)-1-(4-diethylamino-2-prenyloxyphenyl)-7-(3-hydroxy-4-methoxyphenyl)hepta-1,6-diene-3,5-dione]"
15,180 to 184,"COc1cc(/C=C/C(=O)CC(=O)/C=C/c2ccc3ccn(Cc4ccccc4)c3c2)ccc1O [CU443, (1E,6E)-1-(1-benzyl-1H-indol-6-yl)-7-(4-hydroxy-3-methoxyphenyl)hepta-1,6-diene-3,5-dione]"
16,190 to 194,"COc1ccc(/C=C/C(=O)CC(=O)/C=C/c2ccc3ccn(Cc4ccccc4)c3c2)cc1O [CU444, (1E,6E)-1-(1-benzyl-1H-indol-6-yl)-7-(3-hydroxy-4-methoxyphenyl)hepta-1,6-diene-3,5-dione]"
17,240 to 246,"O=C(/C=C/c1ccc(O)cc1)CC(=O)/C=C/c1ccc2oc(=O)ccc2c1 [CU445, (1E,6E)-1-(4-hydroxyphenyl)-7-(coumarin-6-yl)hepta-1,6-diene-3,5-dione]"

row,SMILES,melting point [°C]
1,"CC(C)(C)OC(=O)N[C@@H](Cc1ccccc1)C(=O)Nc1ccc(/C=C/C(=O)CC(=O)/C=C/c2ccc(O)cc2)cc1 [CU396, (1E,6E)-1-(4-hydroxyphenyl)-7-[4-((S)-2-tert-butoxycarbonylamino-3-phenylpropionylamino)phenyl]hepta-1,6-diene-3,5-dione]",116 to 121
2,"CC(C)(C)OC(=O)Nc1ccc(/C=C/C(=O)CC(=O)/C=C/c2ccc(O)cc2)cc1 [CU405, (1E,6E)-1-[4-(tert-butoxycarbonylamino)phenyl]-7-(4-hydroxyphenyl)hepta-1,6-diene-3,5-dione]",181 to 184
3,"CC(C)(C)OC(=O)N[C@H](Cc1ccccc1)C(=O)Nc1ccc(/C=C/C(=O)CC(=O)/C=C/c2ccc(O)cc2)cc1 [CU406, (1E,6E)-1-[4-((R)-2-tert-butoxycarbonylamino-3-phenylpropionylamino)phenyl]-7-(4-hydroxyphenyl)hepta-1,6-diene-3,5-dione]",113 to 120
4,"CC(C)(C)OC(=O)N1CCc2ccc(/C=C/C(=O)CC(=O)/C=C/c3ccc(O)cc3)cc21 [CU419, (1E,6E)-1-[1-(tert-butoxycarbonyl)-indolin-6-yl]-7-(4-hydroxyphenyl)hepta-1,6-diene-3,5-dione]",111 to 118
